Source: patent US6407130B1, “Carboxamide-substituted benzimidazoles having tryptase-inhibiting activity” (Boehringer Ingelheim Pharma KG, priority 1999, dated 2002)
Structures can show the parent of a compound that is named as a salt.

Target: T1, rh beta tryptase (Homo sapiens, UniProt Q15661)
T1 construct: purchased Promega
Experiment: tryptase inhibition test (cleavage of N-p-tosyl-Gly-Pro-Lys-para-nitroaniline, p-nitroaniline measured at 405 nm)
Format: biochemical
Details: Tris HCl buffer pH 7.4 with calcium and heparin; substrate 0.6 mM; 5 minutes' pre-incubation, 5 minutes incubation at 37° C.
Experimental: The compounds according to the invention are characterised by their tryptase-inhibiting activity. This ability to inhibit tryptase was investigated using the test described as follows. The measurement is carried out in Tris HCl buffer (100 mM), which additionally contains calcium (5 mM) and heparin ([…]), at pH 7.4. The standard used is rh beta tryptase which may be obtained commercially from Promega, for example. The substrate used is N-p-tosyl-Gly-Pro-Lys-para-nitroaniline in a concentration of 0.6 mM. The substrate is digested with tryptase to form p-nitroaniline which can be measured at 405 nm. Usually, an incubation period of 5 minutes and an incubation temperature of 37° C. are chosen. The enzyme activity used is 0.91 U/ml. The measurements are carried out in an Autoanalyser (Cobas Bio) made by Hofmann LaRoche. The potential inhibitory substances are used in concentrations of 10 μM in the screening, the inhibition of the tryptase being given in percent. The IC50 is determined at over 70% inhibition (concentration at which 50% of the enzyme activity is inhibited). After 5 minutes' pre-incubation of the potential inhibitory substances, the substrate is added to start the reaction, the formation of p-nitroaniline being taken as a measurement of the enzyme activity after 5 minutes, after testing the linearity.

T1 sequence (Q15661 31-275): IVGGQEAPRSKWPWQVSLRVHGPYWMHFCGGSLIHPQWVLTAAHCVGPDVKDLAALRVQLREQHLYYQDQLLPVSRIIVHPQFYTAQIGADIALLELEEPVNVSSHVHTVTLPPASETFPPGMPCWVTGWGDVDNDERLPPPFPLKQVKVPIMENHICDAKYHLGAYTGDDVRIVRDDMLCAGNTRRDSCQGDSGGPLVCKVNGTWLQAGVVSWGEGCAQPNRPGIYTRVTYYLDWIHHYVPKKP

Row | SMILES | IC50
1 | Cn1c(CCc2ccc(C(=N)N)cc2)nc2cc(N(Cc3ccccc3)C(=O)CCCN)ccc21 [Example 36, N-{2-[2-(4-Amidinophenyl)-ethyl]-1-methyl-benzimidazol-5-yl}-N-benzyl-[4-amino-butanoic acid amide]-dihydrochloride] | 70 nM
2 | CN(C)CCCC(=O)N(Cc1ccccc1)c1ccc2c(c1)nc(CCc1ccc(C(=N)N)cc1)n2C [Example 37, N-{2-[2-(4-Amidinophenyl)-ethyl]-1-methyl-benzimidazol-5-yl}-N-benzyl-[4-dimethyl-amino-butanoic acid amide]-dihydrochloride] | 76 nM
3 | Cn1c(CCc2ccc(C(=N)N)cc2)nc2cc(N(Cc3cccc4ccccc34)C(=O)CCC3CCNCC3)ccc21 [Example 38, N-{2-[2-(4-Amidinophenyl)-ethyl]-1-methyl-benzimidazol-5-yl}-N-( - naphthylmethyl)-[3-(piperidin-4-yl)-propionamide]-dihydrochloride] | 47 nM
4 | Cn1c(CCc2ccc(C(=N)N)cc2)nc2cc(N(Cc3ccccc3)C(=O)CCCNC(=N)N)ccc21 [Example 39, N-{2-[2-(4-Amidinophenyl)-ethyl]-1-methyl-benzimidazol-5-yl}-N-benzyl-[4-guanidino-butanoic acid amide]-dihydrochloride] | 77 nM
5 | Cn1c(CCc2ccc(C(=N)N)cc2)nc2cc(N(Cc3cccc4ccccc34)C(=O)CN3CCN(c4ccccn4)CC3)ccc21 [Example 40, N-{2-[2-(4-Amidinophenyl)-ethyl]-1-methyl-benzimidazol-5-yl}-N-( - naphthylmethyl)-[2-(1-pyridin-2-yl-piperazin-4-yl)-acetamide]-dihydro-chloride] | 13 nM
6 | CN(C)CCN(C)CC(=O)N(Cc1cccc2ccccc12)c1ccc2c(c1)nc(CCc1ccc(C(=N)N)cc1)n2C [Example 41, N-{2-[2-(4-Amidinophenyl)-ethyl]-1-methyl-benzimidazol-5-yl}-N-(α-naphthylmethyl)-[2-(N-(2-dimethylaminoethyl)-N-methylamino)-acetamide]-trihydrochloride] | 18 nM
7 | Cn1c(CCc2ccc(C(=N)N)cc2)nc2cc(N(Cc3cccc4ccccc34)C(=O)CCCc3ccc([N+](=O)[O-])cc3)ccc21 [Example 42, N-{2-[2-(4-Amidinophenyl)-ethyl]-1-methyl-benzimidazol-5-yl}-N-(α-naphthylmethyl)-[4-(4-nitrophenyl)-butyroamide]-hydrochloride] | 11 nM
8 | Cn1c(CCc2ccc(C(=N)N)cc2)nc2cc(N(Cc3cccc4ccccc34)C(=O)CCCc3ccc(N)cc3)ccc21 [Example 47, N-{2-[2-(4-Amidinophenyl)-ethyl]-1-methyl-benzimidazol-5-yl}-N-( - naphthylmethyl)-[4-(4-aminophenyl)-butyroamide]-dihydrochloride] | 12 nM
9 | Cn1c(CCc2ccc(C(=N)N)cc2)nc2cc(N(Cc3cccc4ccccc34)C(=O)CNCc3ccccc3[N+](=O)[O-])ccc21 [Example 49, N-{2-[2-(4-Amidinophenyl)-ethyl]-1-methyl-benzimidazol-5-yl}-N-( - naphthylmethyl)-[2-(2-nitrobenzylamino)-acctamide]-dihydrochloride] | 13 nM
10 | Cn1c(CCc2ccc(C(=N)N)cc2)nc2cc(N(Cc3ccc4ccccc4c3)C(=O)CCC3CCN(Cc4ccccc4)CC3)ccc21 [Example 50] | 72 nM
11 | Cn1c(CCc2ccc(C(=N)N)cc2)nc2cc(N(Cc3ccc4ccccc4c3)C(=O)CNCc3ccc([N+](=O)[O-])cc3)ccc21 [Example 53, N-{2-[2-(4-Amidinophenyl)-ethyl]-1-methyl-benzimidazol-5-yl}-N-(β-naphthylmethyl)-[2-(4-nitrobenzylamino)-acetamide]-hydrochloride] | 92 nM
12 | Cn1c(CCc2ccc(C(=N)N)cc2)nc2cc(N(Cc3ccc4ccccc4c3)C(=O)CCCc3ccc(N)cc3)ccc21 [Example 55, N-{2-[2-(4-Amidinophenyl)-ethyl]-1-methyl-benzimidazol-5-yl}-N-(β-naphthylmethyl)-[4-(4-aminophenyl)-butyroamide]-dihydrochloride] | 172 nM
13 | Cn1c(CCc2ccc(C(=N)N)cc2)nc2cc(N(Cc3c4ccccc4cc4ccccc34)C(=O)CCC3CCN(Cc4ccccc4)CC3)ccc21 [Example 56, N-{2-[2-(4-Amidinophenyl)-ethyl]-1-methyl-benzimidazol-5-yl}-N-(anthracen-9-ylmethyl)-[3-(1-benzyl-piperidin-4-yl)-propionamide]-dihydro-chloride] | 90.6 nM
14 | COc1ccc(CNCC(=O)N(Cc2ccc3ccccc3c2)c2ccc3c(c2)nc(CCc2ccc(C(=N)N)cc2)n3C)cc1 [Example 57, N-{2-[2-(4-Amidinophenyl)-ethyl]-1-methyl-benzimidazol-5-yl}-N-(β-naphthylmethyl)-[4-methoxybenzylamino-acetamide]-dihydrochloride] | 26 nM
15 | COc1ccccc1N1CCN(CC(=O)N(Cc2cccc3ccccc23)c2ccc3c(c2)nc(CCc2ccc(C(=N)N)cc2)n3C)CC1 [Example 58, N-{2-[2-(4-Amidinophenyl)-ethyl]-1-methyl-benzimidazol-5-yl}-N-( - naphthylmethyl)-[2-(1-(2-methoxyphenyl)-piperazin-4-yl)-acetamide]-dihydrochloride] | 19 nM
16 | CN(C)CCOCC(=O)N(Cc1cccc2ccccc12)c1ccc2c(c1)nc(CCc1ccc(C(=N)N)cc1)n2C [Example 59, N-{2-[2-(4-Amidinophenyl)-ethyl]-1-methyl-benzimidazol-5-yl}-N-(α-naphthylmethyl)-[2-(2-dimethylaminoethoxy)-acetamide]-dihydrochloride] | 66 nM

The next lines start with the values.

Row | IC50 | SMILES
17 | 10 nM | COc1ccc(CNCC(=O)N(Cc2cccc3ccccc23)c2ccc3c(c2)nc(CCc2ccc(C(=N)N)cc2)n3C)cc1 [Example 43, N-{2-[2-(4-Amidinophenyl)-ethyl]-1-methyl-benzimidazol-5-yl}-N-(- naphthylmethyl)-[2-(4-methoxybenzylamino)-acetamide]-dihydrochloride]
18 | 12 nM | Cn1c(CCc2ccc(C(=N)N)cc2)nc2cc(N(Cc3cccc4ccccc34)C(=O)CNCc3ccc(-c4ccccc4)cc3)ccc21 [Example 45, N-{2-[2-(4-Amidinophenyl)-ethyl]-1-methyl-benzimidazol-5-yl}-N-( - naphthylmethyl)-[2-(4-phenylbenzylamino)-acetamide]-dihydrochloride]
19 | 27 nM | Cn1c(CCc2ccc(C(=N)N)cc2)nc2cc(N(Cc3cccc4ccccc34)C(=O)CNCc3cccc(C(=N)N)c3)ccc21 [Example 46, N-{2-[2-(4-Amidinophenyl)-ethyl]-1-methyl-benzimidazol-5-yl}-N-( - naphthylmethyl)-[2-(3-amidinobenzylamino)-acetamide]-trihydrochloride]
20 | 38 nM | Cn1c(CCc2ccc(C(=N)N)cc2)nc2cc(N(Cc3cccc4ccccc34)C(=O)CNCc3ccncc3)ccc21 [Example 48, N-{2-[2-(4-Amidinophenyl)-ethyl]-1-methyl-benzimidazol-5-yl}-N-( - naphthylmethyl)-[2-(pyridin-4-ylmethylamino)-acctamide]-dihydrochloride]
21 | 25 nM | Cn1c(CCc2ccc(C(=N)N)cc2)nc2cc(N(Cc3cccc4ccccc34)C(=O)CNCc3ccccc3N)ccc21 [Example 51, N-{2-[2-(4-Amidinophenyl)-ethyl]-1-methyl-benzimidazol-5-yl}-N-( - naphthylmethyl)-[2-(2-aminobenzylamino)-acetamide]-trihydrochloride]
22 | 12 nM | Cn1c(CCc2ccc(C(=N)N)cc2)nc2cc(N(Cc3cccc4ccccc34)C(=O)CNCc3ccc(O)cc3)ccc21 [Example 52, N-{2-[2-(4-Amidinophenyl)-ethyl]-1-methyl-benzimidazol-5-yl}-N-( - naphthylmethyl)-[2-(4-hydroxybenzylamino)-acetamide]-dihydrochloride]
23 | 8.6 nM | CCN(CC)c1ccc(CNCC(=O)N(Cc2cccc3ccccc23)c2ccc3c(c2)nc(CCc2ccc(C(=N)N)cc2)n3C)cc1 [Example 54, N-{2-[2-(4-Amidinophenyl)-ethyl]-1-methyl-benzimidazol-5-yl}-N-( - naphthylmethyl)-[2-(4-diethylaminobenzylamino)-acetamide]-dihydrochloride]
24 | 25 nM | Cc1ccc(CNCC(=O)N(Cc2cccc3ccccc23)c2ccc3c(c2)nc(CCc2ccc(C(=N)N)cc2)n3C)cc1 [Example 60, N-{2-[2-(4-Amidinophenyl)-ethyl]-1-methyl-benzimidazol-5-yl}-N-(- naphthylmethyl)-[2-(4-methylbenzylamino)-acetamide]-dihydrochloride]
25 | 39 nM | Cn1c(CCc2ccc(C(=N)N)cc2)nc2cc(N(Cc3cccc4ccccc34)C(=O)CNCc3ccc(F)cc3)ccc21 [Example 61, N-{2-[2-(4-Amidinophenyl)-ethyl]-1-methyl-benzimidazol-5-yl}-N-( - naphthylmethyl)-[2-(4-fluorobenzylamino)-acetamide]-dihydrochloride]
26 | 29 nM | Cn1c(CCc2ccc(C(=N)N)cc2)nc2cc(N(Cc3cccc4ccccc34)C(=O)CNCc3ccccc3)ccc21 [Example 62, N-{2-[2-(4-Amidinophenyl)-ethyl]-1-methyl-benzimidazol-5-yl}-N-( - naphthylmethyl)-[2-(N-benzylamino)-acetamide]-dihydrochloride]
